Laboratory results taken from US11434204B2, “Method for producing a polymorphic form of 3-[5-amino-4-(3-cyanobenzoyl)-pyrazol-1-yl]-N-cyclopropyl-4-methylbenzamide” (MEREO BIOPHARMA 1 LIMITED, priority 2016, dated 2022).

Experiments:
Format in all cases: physicochemical
[1] = Final polymorph after holding in different solvents at different temperatures
Procedure: Thus, preferably the solution of 3-[5-amino-4-(3-cyanobenzoyl)-pyrazol-1-yl]-N-cyclopropyl-4-methylbenzamide is not exposed to temperatures of greater than 70° C. for more than 24 hours, preferably not more than 12 hours, preferably not more than 6 hours.
Thus, it can be seen that at the higher temperatures of 70 and 80° C., conversion to Form B is effected, or a mixture of Form A and Form B are produced, particularly over longer periods of time. It can also be seen that the hydrate is formed when water is included in the solvent.

[2] = Variable temperature XRPD of Form A
Procedure: The sample was placed in Anton-Paar TTK 450 chamber at 25° C. The temperature was controlled in-situ through the measurement files: p2853-vt, LRP-1301-39-01.dql, LRP-1301-42-01.dql, LRP-1301-42-02.dql. The sample was heated from 25° C. to 200° C. at 1° C./min. XRPD data were collected from 30° C. to 200° C. every 10° C. Approximately 40 mg of the sample was placed in a Ni-coated sample holder under ambient conditions. The sample was loaded at 25° C.
At 200° C., changes (shifts) in peak position in the high 2-theta region were observed. This may be attributed to the thermal expansion effect.

[3] = Hygroscopicity (statement, method not given)

Cc1ccc(C(=O)NC2CC2)cc1-n1ncc(C(=O)c2cccc(C#N)c2)c1N [3-[5-amino-4-(3-cyanobenzoyl)-pyrazol-1-yl]-N-cyclopropyl-4-methylbenzamide]
Final polymorph ([1]; 60° C., DMAC/H2O = 1/1, 1 day): hydrate | Final polymorph ([1]; 60° C., H2O, 1 day): hydrate | Final polymorph ([1]; 70° C., EtOH, 3 days): A + B | Final polymorph ([1]; 70° C., n-PrOH, 3 days): A + B

Cc1ccc(C(=O)NC2CC2)cc1-n1ncc(C(=O)c2cccc(C#N)c2)c1N [Form A, 3-[5-amino-4-(3-cyanobenzoyl)-pyrazol-1-yl]-N-cyclopropyl-4-methylbenzamide]
Temperature above which Form A converted to Form B on heating ([2]; variable temperature XRPD, heated from 25° C. to 200° C. at 1° C./min): above 100 °C | Hygroscopicity [3]: non-hygroscopic

Cc1ccc(C(=O)NC2CC2)cc1-n1ncc(C(=O)c2cccc(C#N)c2)c1N [Form B, 3-[5-amino-4-(3-cyanobenzoyl)-pyrazol-1-yl]-N-cyclopropyl-4-methylbenzamide]
Solid form by XRPD after cooling to room temperature ([2]; after heating to 200° C.): remained unchanged
